Source: patent US20060035846A1, “Preventing/correcting functional disorders of the pilosebaceous unit of mammals” (L'OREAL, priority 2002, published 2006)

Tested on: costo-vertebral organ (CVO) of the hamster
Test: CVO test: inhibition of the "testosterone effect" by food supplements
Format: in vivo
Conditions: daily topical application of testosterone to the right CVO from day 50; control animals without food supplement; FIG. 1
Source text: 1-A: Principle of the CVO Test:
The CVO of the hamster is a cutaneous region rich in pilosebaceous units.
The CVO test consists of determining the anti-androgenic action of different compounds on the CVO, i.e., of determining whether said compounds prevent the action of testosterone (Liao S et al., Arch Dermatol Res, 293(4), 200-206 (2001)).
Consequently, this figure illustrates the “testosterone effect”.
As from the fiftieth day (dotted arrow), testosterone was applied daily to the right CVO.
The following products were used in the context of the in vivo CVO test such as defined above. These products were tested as food supplements, alone or in combination. • (a) the natural aroma of red wine rich in resveratrol (stilbenes) and proanthocyanidines (flavonoids) in the proportion of 0.11 g in 43 g of food (18% of polyphenols); • (b) a soja extract containing 40% of isoflavonoids, in a proportion of 0.02 g of extract in 44 g of food (40% of isoflavones); • (c) black currant pip oil rich in γ-linolenic acid (polyunsaturated fatty acid 18:3 n-6) in a proportion of 10% by weight in the foodstuff; • (d) the combination of the above three products.

SMILES: C[C@]12CC[C@H]3[C@@H](CCC4=CC(=O)CC[C@@]43C)[C@@H]1CC[C@@H]2O [testosterone]
- size of the right CVO compared with that of the left CVO ("testosterone effect"): increase in the size
